Experimental data published in paper PMC10796436, “Peptidyl nitroalkene inhibitors of main protease rationalized by computational and crystallographic investigations as antivirals against SARS-CoV-2” (Communications Chemistry, 2024).
Values joined by “and” are separate entries in the source; they are usually repeats but may differ in a detail not shown here. Equal entries are not always repeated.

Columns and labels:
[1] = target: T1, SARS-CoV-2 M^pro (Severe acute respiratory syndrome coronavirus 2, UniProt P0DTD1); assay: biochemical; details: M^pro from pMal-M^pro vector
[2] = target: T1, SARS-CoV-2 M^pro; assay: Mpro FRET inhibition, continuous fluorometric assay (Fluorolog-3), enzyme from pET21-M^pro vector; type: biochemical; details: read-out: Ki (μM)^b
[3] = system: SARS-CoV-2; assay: microbe, parasite or virus in culture; type: cell-based; details: for virus titer Mean (%): mean of Exp.1-3
[4] = target: human matriptase (MT-SP1) (Homo sapiens, UniProt Q9Y5Y6); assay: Matriptase inhibition, fluorometric assay; type: biochemical; details: 20 μM
[5] = target: Zika Virus NS2B/NS3 (bZiPro) (Zika virus, UniProt A0A024B7W1); assay: Zika virus protease inhibition, fluorometric assay; type: biochemical; details: 20 μM
[6] = target: T2, cathepsin L (CatL) (Homo sapiens, UniProt P07711); assay: Cathepsin L inhibition, fluorometric assay; type: biochemical; details: read-out: Ki CatL
T2 construct: purchased Calbiochem (Merck Millipore)

[7] = target: M^pro (Severe acute respiratory syndrome coronavirus 2, UniProt P0DTD1); assay: biochemical; type: binding

human matriptase (MT-SP1), sequence (Q9Y5Y6 615-855 limits assumed, other chains not shown): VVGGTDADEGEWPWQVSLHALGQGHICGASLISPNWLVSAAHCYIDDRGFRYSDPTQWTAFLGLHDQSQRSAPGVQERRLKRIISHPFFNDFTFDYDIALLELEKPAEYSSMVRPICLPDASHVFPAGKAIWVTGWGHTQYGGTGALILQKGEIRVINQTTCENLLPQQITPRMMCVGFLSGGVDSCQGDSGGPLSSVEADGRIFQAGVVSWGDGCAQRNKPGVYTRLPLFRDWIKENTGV
Zika Virus NS2B/NS3 (bZiPro), sequence (A0A024B7W1 1425-1464): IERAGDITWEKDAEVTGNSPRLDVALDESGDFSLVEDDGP
Zika Virus NS2B/NS3 (bZiPro), sequence (A0A024B7W1 1503-1680): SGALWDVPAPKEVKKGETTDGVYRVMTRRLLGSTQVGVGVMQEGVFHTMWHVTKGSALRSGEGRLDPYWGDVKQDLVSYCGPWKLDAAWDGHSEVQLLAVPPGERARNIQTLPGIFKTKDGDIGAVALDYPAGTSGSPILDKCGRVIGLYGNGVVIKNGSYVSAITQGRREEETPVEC
T2 sequence (P07711 114-288 limits assumed): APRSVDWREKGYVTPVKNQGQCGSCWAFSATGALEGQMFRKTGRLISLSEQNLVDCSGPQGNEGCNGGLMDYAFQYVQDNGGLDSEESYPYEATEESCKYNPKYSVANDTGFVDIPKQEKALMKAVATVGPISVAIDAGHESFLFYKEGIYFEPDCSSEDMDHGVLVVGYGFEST
T2 sequence (P07711 292-333 limits assumed): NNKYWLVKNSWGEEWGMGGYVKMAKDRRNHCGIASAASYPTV

Structure (SMILES): COc1cccc2[nH]c(C(=O)N[C@@H](CC(C)C)C(=O)N[C@H](/C=C/[N+](=O)[O-])C[C@@H]3CCNC3=O)cc12 [FGA146]
- Ki [1]: 2.19 ± 0.18 µM
- Ki [2]: 0.96 ± 0.06 µM
- EC50 ([3]; Huh-7-ACE2, 24h p.t., […]): 900 nM
- virus titer Mean (%) ([3]; conc 0.1): 133.333%
- virus titer Mean (%) ([3]; conc 0.5): 86.6667%
- virus titer (%) of conc 0 ([3]; conc 0.5, single experiments): 100% and 60%
- virus titer (pfu/ml) ([3]; conc 0.5, single experiments): 1000000 pfu/ml and 1200000 pfu/ml
- virus titer Mean (%) ([3]; conc 1): 22.5%
- virus titer Mean (%) ([3]; conc 5): 0.1667%
- virus titer (%) of conc 0 ([3]; conc 5, single experiments): 0.4% and 0.04% and 0.06%
- virus titer Mean (%) ([3]; conc 10): 0.1023%
- virus titer (%) of conc 0 ([3]; conc 10, single experiments): 0.12% and 0.18% and 0.007%
- virus titer Mean (%) ([3]; conc 50): 0.02533%
- virus titer (%) of conc 0 ([3]; conc 50, single experiments): 0.06% and 0.014% and 0.002%
- virus titer Mean (%) ([3]; conc 100): 0.02033%
- virus titer (%) of conc 0 ([3]; conc 100, single experiments): 0.04% and 0.018% and 0.003%
- MT-SP1 [4]: n.i. (no inhibition (<10%) was observed at a concentration of 20 μM)
- bZiPro [5]: n.i. (no inhibition (<10%) was observed at a concentration of 20 μM)
- Ki [6]: 868 ± 60 nM
- Tm of M^pro [7]: 45.0 ± 0.2 °C and 42.8 ± 0.1 °C
- DTm (°C) ([7]; 25 mM): -4.2 °C
- Fraction unfolded ([7]; 25 mM, 21.5 °C): -0.01003
- Fraction unfolded ([7]; 25 mM, 22 °C): -0.02886
- Fraction unfolded ([7]; 25 mM, 22.5 °C): -0.03599
- Fraction unfolded ([7]; 25 mM, 23 °C): -0.01149
- Fraction unfolded ([7]; 25 mM, 23.5 °C): 0.01389
- Fraction unfolded ([7]; 25 mM, 24 °C): 0.08488
- Fraction unfolded ([7]; 25 mM, 24.5 °C): 0.03781
- Fraction unfolded ([7]; 25 mM, 25 °C): -0.07553
- Fraction unfolded ([7]; 25 mM, 25.5 °C): 0.01064
- Fraction unfolded ([7]; 25 mM, 26 °C): 0.08908
- Fraction unfolded ([7]; 25 mM, 26.5 °C): 0.04267
- Fraction unfolded ([7]; 25 mM, 27 °C): -0.01602
- Fraction unfolded ([7]; 25 mM, 27.5 °C): 0.0059
- Fraction unfolded ([7]; 25 mM, 28 °C): -0.0719
- Fraction unfolded ([7]; 25 mM, 28.5 °C): 0.01153
- Fraction unfolded ([7]; 25 mM, 29 °C): -0.09309
- Fraction unfolded ([7]; 25 mM, 29.5 °C): -0.02786
- Fraction unfolded ([7]; 25 mM, 30 °C): -0.01911
- Fraction unfolded ([7]; 25 mM, 30.5 °C): 0.07168
- Fraction unfolded ([7]; 25 mM, 31 °C): 0.0139
- Fraction unfolded ([7]; 25 mM, 32 °C): -0.02402
- Fraction unfolded ([7]; 25 mM, 32.5 °C): 0.02054
- Fraction unfolded ([7]; 25 mM, 66.5 °C): 0.9674
- Fraction unfolded ([7]; 25 mM, 67 °C): 1.009
- Fraction unfolded ([7]; 25 mM, 67.5 °C): 1.012
- Fraction unfolded ([7]; 25 mM, 68 °C): 1.038
- Fraction unfolded ([7]; 25 mM, 68.5 °C): 1.026
- Fraction unfolded ([7]; 25 mM, 69 °C): 1.004
- Fraction unfolded ([7]; 25 mM, 69.5 °C): 1.031
- Fraction unfolded ([7]; 25 mM, 70 °C): 1.005
- Fraction unfolded ([7]; 25 mM, 70.5 °C): 0.9826
- Fraction unfolded ([7]; 25 mM, 71 °C): 1.014
- Fraction unfolded ([7]; 25 mM, 71.5 °C): 1.05
- Fraction unfolded ([7]; 25 mM, 72 °C): 1.03
- Fraction unfolded ([7]; 25 mM, 72.5 °C): 1.006
- Fraction unfolded ([7]; 25 mM, 73 °C): 1.029
- Fraction unfolded ([7]; 25 mM, 73.5 °C): 0.9779
- Fraction unfolded ([7]; 25 mM, 74 °C): 1.013
- Fraction unfolded ([7]; 25 mM, 74.5 °C): 1.064
- Fraction unfolded ([7]; 25 mM, 75 °C): 1.029
- Fraction unfolded ([7]; 25 mM, 75.5 °C): 1.031
- Fraction unfolded ([7]; 25 mM, 76 °C): 1.031
- Fraction unfolded ([7]; 25 mM, 76.5 °C): 0.9806
- Fraction unfolded ([7]; 25 mM, 77 °C): 1.015
- Fraction unfolded ([7]; 25 mM, 77.5 °C): 1.011
- Fraction unfolded ([7]; 25 mM, 78 °C): 1.0092
- Fraction unfolded ([7]; 25 mM, 78.5 °C): 1.012
- Fraction unfolded ([7]; 25 mM, 79 °C): 1.059
- Fraction unfolded ([7]; 25 mM, 79.5 °C): 0.9461
- Fraction unfolded ([7]; 25 mM, 80 °C): 1.0063
- DTm (°C) ([7]; 100 mM): -6.4 °C
- Fraction unfolded ([7]; 100 mM, 21.5 °C): -0.0719
- Fraction unfolded ([7]; 100 mM, 22 °C): 0.01153
- Fraction unfolded ([7]; 100 mM, 22.5 °C): -0.09309
- Fraction unfolded ([7]; 100 mM, 23 °C): -0.02786
- Fraction unfolded ([7]; 100 mM, 23.5 °C): -0.01911
- Fraction unfolded ([7]; 100 mM, 24 °C): 0.07168
- Fraction unfolded ([7]; 100 mM, 24.5 °C): 0.0139
- Fraction unfolded ([7]; 100 mM, 25 °C): 0.01178
- Fraction unfolded ([7]; 100 mM, 25.5 °C): -0.02402
- Fraction unfolded ([7]; 100 mM, 26 °C): 0.02054
- Fraction unfolded ([7]; 100 mM, 26.5 °C): 0.0786
- Fraction unfolded ([7]; 100 mM, 27 °C): -0.05017
- Fraction unfolded ([7]; 100 mM, 27.5 °C): -0.00904
- Fraction unfolded ([7]; 100 mM, 28 °C): -0.01003
- Fraction unfolded ([7]; 100 mM, 28.5 °C): -0.02886
- Fraction unfolded ([7]; 100 mM, 29 °C): -0.03599
- Fraction unfolded ([7]; 100 mM, 29.5 °C): -0.01149
- Fraction unfolded ([7]; 100 mM, 30 °C): 0.01389
- Fraction unfolded ([7]; 100 mM, 30.5 °C): 0.08488
- Fraction unfolded ([7]; 100 mM, 31 °C): 0.03781
- Fraction unfolded ([7]; 100 mM, 32 °C): 0.01064
- Fraction unfolded ([7]; 100 mM, 32.5 °C): 0.08908
- Fraction unfolded ([7]; 100 mM, 66.5 °C): 1.038
- Fraction unfolded ([7]; 100 mM, 67 °C): 1.026
- Fraction unfolded ([7]; 100 mM, 67.5 °C): 1.004
- Fraction unfolded ([7]; 100 mM, 68 °C): 1.031
- Fraction unfolded ([7]; 100 mM, 68.5 °C): 1.005
- Fraction unfolded ([7]; 100 mM, 69 °C): 0.9826
- Fraction unfolded ([7]; 100 mM, 69.5 °C): 1.014
- Fraction unfolded ([7]; 100 mM, 70 °C): 1.04
- Fraction unfolded ([7]; 100 mM, 70.5 °C): 0.9664
- Fraction unfolded ([7]; 100 mM, 71 °C): 0.9851
- Fraction unfolded ([7]; 100 mM, 71.5 °C): 0.9877
- Fraction unfolded ([7]; 100 mM, 72 °C): 0.9881
- Fraction unfolded ([7]; 100 mM, 72.5 °C): 1.095
- Fraction unfolded ([7]; 100 mM, 73 °C): 0.9972
- Fraction unfolded ([7]; 100 mM, 73.5 °C): 1.057
- Fraction unfolded ([7]; 100 mM, 74 °C): 0.8905
- Fraction unfolded ([7]; 100 mM, 74.5 °C): 1.0309
- Fraction unfolded ([7]; 100 mM, 75 °C): 0.9492
- Fraction unfolded ([7]; 100 mM, 75.5 °C): 0.9161
- Fraction unfolded ([7]; 100 mM, 76 °C): 1.007
- Fraction unfolded ([7]; 100 mM, 76.5 °C): 1.02
- Fraction unfolded ([7]; 100 mM, 77 °C): 1.017
- Fraction unfolded ([7]; 100 mM, 77.5 °C): 1.029
- Fraction unfolded ([7]; 100 mM, 78 °C): 1.021
- Fraction unfolded ([7]; 100 mM, 78.5 °C): 1.059
- Fraction unfolded ([7]; 100 mM, 79 °C): 0.9805
- Fraction unfolded ([7]; 100 mM, 79.5 °C): 0.9855
- Fraction unfolded ([7]; 100 mM, 80 °C): 1.001
